Laboratory results from patent publication US20180177891A1, “Nanoparticle-Based Antigen Specific Immunotherapy” (Midatech Limited, priority 2015, published 2018).
Where no end group is shown, it is not given here.

Columns and labels:
Solubility tests = assay type: physicochemical
Method: Given the low incorporation of 10% C19-A3 peptide into GNPs (3-5%) using the 75% methanol-based preparation method, solubility tests were performed to determine the optimal solution for C19-A3 peptide conjugation to gold nanoparticles. […] Therefore, water-based GNP synthesis methods were developed using low (10%) or intermediate (35%) levels of methanol, and vivaspin centrifugation to remove any unbound peptide. GNPs containing 10% C19-A3 peptide and 10% glucose C2 (NP58) or 10% mannose C2 (NP61) were synthesised using a water-based (10% methanol) method (Table 12). HPLC analysis of peptide released from the C19-A3-GNPs following treatment with KCN solution (100 mM), confirmed 100% and 62% incorporation efficiency of C19-A3 peptide, with 31 and 19 peptides bound per GNP, for NP58 and NP61, respectively. An intermediate 35% methanol preparation method was also tested for synthesis of 10% C19-A3, 10% glucose C2 GNPs (NP63). HPLC analysis again confirmed high incorporation of C19-A3 peptide (67%), with 20 peptides bound per GNP.

[1] = test system: OT-II (ovalbumin peptide (323-339) specific) CD4+ T cells; test: OT-II T cell proliferation in draining LN after intradermal injection; assay type: in vivo, C57BL/6 mice; details: 3 days later, flow cytometry
Method: PBS, ovalbumin peptide (323-339) or ovalbumin peptide (323-339) containing GNPs (NP167, NP168) were injected intradermally in C57BL/6 mice 24 h after i.v. administration of fluorescent cell trace violet (CTV)-labelled OT-II (ovalbumin peptide (323-339) specific) CD4+ T cells. 3 days later, draining LN cells were isolated and studied by flow cytometry. The presence of OT-II cells in the LN was shown by the appearance of cells of that are […] CD45.1^+Vα2^+ and high CTV fluorescence (right hand edge of square). Proliferation of OT-II cells was seen as dilution of the CTV fluorescence, bringing the cells progressively at each cell cycle into the blue box. The percentage of cells with the proliferation square is shown. […] Each plot represents the results from a different mouse.
PBS, ovalbumin peptide (323-339), or ovalbumin peptide (323-339) coupled GNPs (NP167, NP168) were administered intradermally to C57BL-6 mice, at the same time as i.v. administration of fluorescent cell trace violet (CTV) labelled OT-II (Ovalbumin peptide specific) CD4 positive T cells. Draining LN and spleen cells were harvested 3 days after ovalbumin (323-339) peptide administration, and studied by flow cytometry. Where fluorescent cells are seen but the level of fluorescence has been reduced, this implies that they have recognised their target peptide on APCs in that tissue and undergone cell division.

BDC-2.5 CD4+ T cells = test: BDC-2.5 CD4+ T cell proliferation in LNs and spleen after injection; assay type: in vivo, murine
Excerpt: Increased proliferation is seen with GNPs coupled to antigen both in the draining and distant LN sites and spleen.
A similar in vivo protocol was designed, using fluorescently labelled indicator CD4^+ T cells (BDC-2.5, specific for chromograninA 342-355 found in pancreatic beta cells) and the peptide “BDC-2.5 mimotope” (a peptide of similar configuration to this epitope, that mimics the chromogranin A 342-355 peptide) coupled to GNPs linked to either mannose C2 or glucose C2.
A preliminary in vivo experiment was carried out using the murine BDC-2.5 mimotope peptide and fluorescently-labelled indicator CD4 T cell clones specific for this peptide described above. GNPs were given coupled to peptide (BDC-2.5 mimotope), IL-10, or both, and compared to blank GNPs of injected controls. […] This provides evidence that the cytokine travels with the GNPs to distant sites when complexed with GNPs, and in bioactive form. This is of enhanced efficiency compared to IL-10 alone.

[2] = test system: OT-II (ovalbumin peptide (323-339) specific) CD4+ T cells; test: Accumulation of fluorescent cells in LN of CCR7−/− mice; assay type: in vivo; details: CCR7−/− compared to wildtype B6 mice
Method: In order to determine whether the injected peptide is carried to draining LNs in fluid phase or carried via migratory skin DCs, homozygous knockout mice for the chemokine receptor CCR7 (which mediates DC migration from skin) were treated in the same protocol as above.

[3] = test system: Human immature monocyte derived dendritic cells (iDCs); test: DC maturation (CD80, HLA-DR expression, FACS); assay type: cell-based; details: subsequent stimulation with LPS
Method: Human immature monocyte derived dendritic cells (iDCs) were incubated with proinsulin C19-A3 coupled GNPs or without GNPs for 4 h. Thereafter, the GNPs were washed off and cells left overnight, either alone or in the presence of 100 ng/ml LPS. Overnight maturation of DCs was measured as increases of CD80 and HLA-DR expression using FACS.
(§1) However, IL-10-GNPs changed the ability of DCs to upregulate HLA-DR and activation molecules CD80 and CD25 upon stimulation with LPS.

[4] = test system: Human immature monocyte derived dendritic cells (iDCs); test: Cytokine release by DCs after LPS (Luminex); assay type: cell-based
Method: iDCs were also incubated with proinsulin C19-A3 GNPs coupled to glucose (GNPgluc), with proinsulin C19-A3 GNPs coupled to mannose (GNPman), or without GNPs for 4 hrs. Thereafter, cells were washed and subsequently stimulated with 100 ng/ml LPS and left overnight. Supernatants were collected the next day and cytokine (IL-10, IL-12 and TNF) release by DCs measured using Luminex.
as §1

## GSLQPLALEGSLQKRGIV [C19-A3 peptide, GSLQPLALEGSLQKRGIV]
Solubility tests
  solubility in water: highly soluble

## ISQAVHAAHAEINEAGR [ovalbumin peptide, Ovalbumin 323-339 peptide, reference compound]
[1]
  OT-II cell accumulation and proliferation in draining LN: low levels

## YVRPLWVRME [BDC-2.5 mimotope peptide, peptide that mimics the chromogranin A 342-355 peptide, reference compound]
BDC-2.5 CD4+ T cells; 3 days after injection
  accumulation of proliferating indicator cells in draining LN, distant LNs and spleen: modest accumulation of proliferating indicator cells

## ovalbumin (323-339) GNPs: ovalbumin (323-339) peptide GNPs
[2]
  fluorescent cells accumulated in the LN: reduced numbers of fluorescent cells

B1: soluble IL-10: Human recombinant IL-10, not bound to nanoparticles (protein, UniProt P22301 19-178, looked up)
Interleukin-10: SPGQGTQSENSCTHFPGNLPNMLRDLRDAFSRVKTFFQMKDQLDNLLLKESLLEDFKGYLGCQALSEMIQFYLEEVMPQAENQDPDIKAHVNSLGENLKTLRLRLRRCHRFLPCENKSKAVEQVKNAFNKLQEKGIYKAMSEFDIFINYIEAYMTMKIRN
[3]
  maturation of DCs upon LPS (phenotype): immature phenotype
[4]; LPS-treated DCs
  pro-inflammatory cytokine production (IL-12 and TNF): reduced pro-inflammatory cytokine production
[4]; final IL-10 concentration 100 pg/ml
  release of IL-10 in the culture: significantly higher release of IL-10
BDC-2.5 CD4+ T cells; preliminary in vivo experiment, IL-10 at the same concentration
  effect of IL-10 on proliferation of indicator T cells: no effect of proliferation
